Among the data in patent publication US7838706B2, “Preparation and the use of ethoxy combretastatins and their prodrugs” (priority 2006, dated 2010) are IC50 values, retold here.

What all share (format): cell-based
Test [1] concerns H460 (human lung cancer cell). In words: In vitro anti-tumor activity evaluation (SRB/MTT, 72 hours). Particulars: read-out: IC50 Non-small cell lung cancer H460. Here is the method:
(§1) The tumor cell cultured in vitro was treated with ethoxy combretastatin derivatives for 72 hours, and the MTT and SRB assays was used to evaluate its inhibition of tumor proliferation.
(§2) Cell Line: H460 (human lung cancer cell), SGC7901 (human stomach cancer cell), HT-29 (human colon cancer cell), Bel-7402 (human liver cancer cell).
(§3) Experimental Design: The cells were incubated with the compounds in various concentrations (100, 10, 1, 0.1, 0.01, 0.001 μM) for 72 hours. SRB assay was used to evaluate the inhibition effect of the compounds on cell proliferation. The inhibition rate was calculated, and IC50 was calculated by using Logit model as a function of the inhibition rate. And the anti-tumor activity of the compounds in vitro was compared.
(§4) The Inhibition Rate was Expressed Using the Following Equation: Inhibition rate (%)=[(average OD value of control group−average OD value of experimental group)/average OD value of control group]×100%.

Test [2] deals with SGC7901 (human stomach cancer cell). Described as above. As to conditions: read-out: IC50 Stomach cancer SGC-7901. Here is the method: as §1, §2, §3, §4
In test [3] the test system is HT-29 (human colon cancer cell). The test is described as above. As to conditions: read-out: IC50 Colon cancer HT29. The protocol:
as §1, §2, §3, §4

Test [4] has as its system Bel-7402 (human liver cancer cell). The description is as above. Particulars: read-out: IC50 Liver cancer Bel-7402. Here is the method:
as §1, §2, §3, §4

For test [5], the system named is human umbilical vein endothelial cells (HUVEC). Kind of test: In vitro neovascular inhibition evaluation. The protocol:
Anti-angiogenesis effects of ethoxy combretastatins were assessed in human umbilical vein endothelial cells (HUVEC) using the same method described in Example 10.

Setting [6] is: Homo sapiens, read-out: IC50 HUVEC.

Structures are written as SMILES. Where two headings read alike, the source gives them in different places.

As for `CCOc1ccc(/C=C\c2cc(OC)c(OC)c(OC)c2)cc1O` [Ethoxy combretastatin, (Z)-1-(3,4,5-trimethoxy)phenyl-2-(3′-hydroxy-4′-ethoxy) Phenylethylene], the 50% inhibitory concentration (IC50) in test [1] (Homo sapiens, NCI-H460, 72 h) was 0.011 µM; in test [2] (Homo sapiens, SGC-7901, 72 h), 0.008 µM; in test [3] (Homo sapiens, HT-29, 72 h), 0.047 µM; in test [4] (Homo sapiens, Bel-7402, 72 h) it was 0.62 µM; in test [5] (setting [6]), 2.2 µM.
On to `COc1ccc(/C=C\c2cc(OC)c(OC)c(OC)c2)cc1O` [CA-4, (Z)-1-(3,4,5-trimethoxy)phenyl-2-(3′-hydroxy-4′-methoxy)phenylethylene], for which the IC50 in test [1] (H460 cells, 72 hours incubation) came to 0.027 µM; in test [2] (SGC-7901 cells, 72 hours incubation) it was 0.01 µM; in test [3] (HT29 cells, 72 hours incubation), 2.38 µM; in test [4] (Bel-7402 cells, 72 hours incubation) it was 0.75 µM; in test [5] (same method as Example 10, read-out: IC50 HUVEC), 3.7 µM.
On to `CCOc1ccc(/C=C\c2cc(OC)c(OC)c(OC)c2)cc1N` [3′-Amino ethoxy combretastatin, (Z)-1-(3,4,5-trimethoxy)phenyl-2-(3′-amino-4′-ethoxy) Phenylethylene], for which the IC50 was determined as 0.008 µM in test [1] (Homo sapiens, NCI-H460, 72 h); 0.006 µM in test [2] (Homo sapiens, SGC-7901, 72 h); 0.025 µM in test [3] (Homo sapiens, HT-29, 72 h); 0.33 µM in test [4] (Homo sapiens, Bel-7402, 72 h); 1.5 µM in test [5] (setting [6]).

In general, IC50 refers to the midpoint of a concentration-inhibition curve.
